Results from patent US12479927B2, “Compounds comprising cleavable linker and uses thereof” (priority 2017, dated 2025).
Non-standard residues stand in square brackets, D forms with d. Residues, ends and D or L forms follow the SMILES beside them. Dolaproine = CO[C@@H]([C@@H]1CCCN1)[C@@H](C)C(=O)O; Dil = CC[C@H](C)[C@H](NC)[C@@H](CC(=O)O)OC; NMeV = CN[C@H](C(=O)O)C(C)C

Key:
[1] = Chemical stability in PBS; format: physicochemical; settings: PBS (pH 7.4), room temperature, light blocked, 7 days incubation
Description: The compound A-1 obtained by Example 58 was dissolved in DMSO, and mixed with PBS (pH 7.4) buffer solution to prepare a solution having a concentration of 500 μM (5% DMSO). MPS used as a standard material was prepared as a solution to have a concentration of 500 μM in PBS buffer solution. 420 μL of the buffer solution, and 140 μL of the compound A-1 solution and 140 μL of MPS solution were mixed, thereby preparing a reaction mixture in a total amount of 700 μL. The reaction mixture was incubated at room temperature while blocking the light. The reaction mixture was aliquoted on 0 day before the reaction and on 1 day, 2 days, 4 days, and 7 days after the reaction, wherein each aliquot amount was 70 μL. Then, the remaining compound A-1, MPS, and liberated tyrosine were quantitated by HPLC analysis.

[2] = Plasma stability test, rat; format: in vitro ADME; settings: 37° C., up to 7 days, 300 μM
Description: (§1) The compound A-1 obtained in Example 58 and MPS used as a standard material were dissolved in DMSO to make a concentration of 60 mM. Then, each of human plasma (Biochemed 752R-SC-PMG), mouse plasma (Biochemed 029-APSC-MP), rat plasma (Biochemed 031-APSC-MP), and beagle dog plasma (Biochemed 013-APSC-MP) were mixed with the compound and MPS to make a final concentration of 300 μM (final 0.5% DMSO). The resulting plasma mixtures were incubated at 37° C. water bath. Aliquots were taken before the reaction and on 1 day, 2 days, 4 days, and 7 days after the reaction, wherein each aliquot was 300 μL. To complete the reaction, two-fold volumes of acetonitrile was added, followed by brief vortexing, and centrifugation for plasma protein precipitation. Each supernatant obtained after centrifugation was collected and analyzed by HPLC. The compound A-1 was detected and quantitated in the mouse, rat, beagle dog, and human plasma for up to 7 days (>95%).

[3] = Plasma stability test, dog; format: in vitro ADME; settings: beagle dog plasma, 37° C., up to 7 days, 300 μM
Description: as §1

[4] = Plasma stability test, human; format: in vitro ADME; settings: 37° C., up to 7 days, 300 μM
Description: as §1

[5] = Plasma stability test, mouse; format: in vitro ADME; settings: 37° C., up to 7 days, 300 μM
Description: as §1

[6] = biological target: T1, Escherichia coli β-glucuronidase (Escherichia coli, UniProt P05804); assay: Enzymatic cleavage assay, Method 3; format: biochemical; settings: Escherichia coli β-glucuronidase (Sigma G7396) in PBS buffer, PBS pH 7.4, 37° C., HPLC, read-out: TG release t1/2(min)
T1 construct: purchased Sigma G7396
Description: Method 3) Escherichia coli β-glucuronidase
The compounds A-1 and A-5 of the present invention were dissolved in DMSO, and mixed with PBS buffer solution to prepare a solution having a concentration of 500 μM (5% DMSO). MPS used as a standard material was prepared as a solution to have a concentration of 500 μM in PBS buffer solution. […] Then, 14 μL of enzyme solution (1 mg/mL) was added thereto, thereby preparing an enzyme reaction solution in a total amount of 700 μL. The reaction mixture was incubated at 37° C. Escherichia coli β-glucuronidase enzyme (Sigma G7396) was used in the reaction mixture.

[7] = biological target: Escherichia coli β-galactosidase (Escherichia coli, UniProt P00722); assay: in vitro; settings: recombinant enzyme
Description: Method 1. Escherichia coli β-galactosidase
MPS used as a standard material was dissolved in PBS buffer solution to make 500 uM solution. […] This was followed by the addition of enzyme solution (14 μL of 1 mg/mL). When comparing with human β-galactosidase, 21 μL of enzyme solution (1 mg/mL) was added to achieve the same molar concentration, and the compound of the present invention and MPS each having an amount of 140 μL and […] of the buffer solution (pH 7.4) were mixed. The resulting reaction mixture was incubated at 37° C. Escherichia coli β-galactosidase enzyme (Sigma G4155) was used in the reaction mixture. The enzyme reaction solution was aliquoted at 0 min before the reaction and at a predetermined time after the reaction, respectively, wherein each aliquot was 70 μL. Then, the remaining compound of the present invention or MPS, and a material liberated by the enzyme reaction were quantitatively analyzed by HPLC.

[8] = tested on: Escherichia coli β-galactosidase + β-glucuronidase; assay: Enzymatic cleavage assay, Method 4; format: biochemical; settings: PBS pH 7.4, 37° C., HPLC, read-out: TG release t1/2(min)
Description: Method 4 Escherichia coli β-Galactosidase+β-Glucuronidase
The compound A-5 of the present invention was dissolved in DMSO, and mixed with PBS buffer solution to prepare a solution having a concentration of 500 μM (5% DMSO). MPS used as a standard material was prepared as a solution to have a concentration of 500 μM in PBS buffer solution. […] Then, 14 μL of 1 mg/mL of β-galactosidase (Sigma G4155) and 14 μL of 1 mg/mL of β-glucuronidase (Sigma G7396) were added thereto, thereby preparing an enzyme reaction mixture in a total amount of 700 μL. The reaction mixture was incubated at 37° C.

Human β-galactosidase = biological target: T2, Human β-galactosidase (Homo sapiens, UniProt P16278); assay: Enzymatic cleavage assay, Method 2; format: biochemical; settings: recombinant enzyme; for Q part release t1/2(min): 100 μM
T2 construct: purchased R&D 6464-GH-020
T2 sequence (P16278 29-677): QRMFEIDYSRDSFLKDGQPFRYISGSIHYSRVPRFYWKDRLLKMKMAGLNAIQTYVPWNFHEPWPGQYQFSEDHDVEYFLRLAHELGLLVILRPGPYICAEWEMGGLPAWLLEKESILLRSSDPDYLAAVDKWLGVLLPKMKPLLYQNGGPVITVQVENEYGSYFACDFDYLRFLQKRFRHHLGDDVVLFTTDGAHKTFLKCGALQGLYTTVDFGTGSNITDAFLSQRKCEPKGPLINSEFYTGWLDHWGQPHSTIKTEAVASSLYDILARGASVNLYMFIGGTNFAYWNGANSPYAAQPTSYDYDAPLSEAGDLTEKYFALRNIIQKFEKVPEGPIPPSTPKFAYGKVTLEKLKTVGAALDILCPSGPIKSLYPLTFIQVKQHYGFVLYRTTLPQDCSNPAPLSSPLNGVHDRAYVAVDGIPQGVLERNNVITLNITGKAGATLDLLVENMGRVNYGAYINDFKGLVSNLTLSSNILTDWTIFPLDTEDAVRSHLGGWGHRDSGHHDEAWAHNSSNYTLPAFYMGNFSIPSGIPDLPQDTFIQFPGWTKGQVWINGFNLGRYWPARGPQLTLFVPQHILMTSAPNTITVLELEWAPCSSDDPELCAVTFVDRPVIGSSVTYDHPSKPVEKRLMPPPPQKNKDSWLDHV
Description: Method 2) Human β-galactosidase
MPS used as a standard material was prepared as a solution to have a concentration of 500 μM in PBS buffer solution. […] Then, 140 μL of 0.1 mg/mL enzyme solution was added thereto, thereby preparing an enzyme reaction solution in a total amount of 700 μL. The reaction mixture was incubated at 37° C. Human β-galactosidase enzyme (R&D 6464-GH-020) was used in the reaction mixture.

KB cancer cells [9] = assay: cells; format: cell-based; settings: MTT; 72 hours, 96 hours, or 144 hours of incubation; read-out: KB cell IC50
Description: KB cancer cells were collected and seeded in 24-well plates at a density of 30,000 cells per well in 2 mL of medium, and cultured for 24 hours. Then, the serial dilutions of compound C-1 obtained in Example 108 were treated from 30 nM to 0.0096 nM, the serial dilutions of compound C-2 obtained in Example 109 were treated from 1000 nM to 0.32 nM, serial dilutions of the compound C-3 obtained in Example 110 and the compound C-7 obtained in Example 114 were treated from 25 nM to 0.0016 nM, and serial dilutions of the drug MMAF-OMe were treated from 10 nM to 0.0097 nM. The serial dilutions of compounds C-5 and C-6 obtained in Example 112 and Example 113 were treated from 100 nM to 0.0001 nM, and the serial dilutions of drug seco-DUBA were treated from 100 nM to 0.001 nM. Serial dilutions of the compounds C-4 and C-9 obtained in Example 111 and Example 116 were treated from 1000 nM to 0.001 nM, and the serial dilutions of drug CBI dimer were treated by from 10 nM to 0.00001 nM. Serial dilutions of the compound C-8 obtained in Example 115 and the drug CBI-indole were treated from 100 nM to 0.0001 nM. After 72 hours, 96 hours, or 144 hours of incubation, 0.2 mL of 3-(4,5-dimethylthiazol-2-yl)-2,5-diphenyltetrazolium bromide (MTT) dye, dissolved in PBS buffer solution (5 mg/mL), was added to each well of the plates. The formazans formed by reduction of the MTT dye by mitochondrial oxidoreductases in the living cells were dissolved in DMSO, and measured using the absorbance at 550 nm.

KB cancer cells [10] = assay: In vitro analysis of protein-drug conjugate, KB; format: cell-based; settings: 96 hours, read-out: KB cell IC50
Description: (§2) KB cancer cells were collected and seeded in 24-well plates at a density of 30,000 cells per well in 2 mL of medium, and cultured for 24 hours. Then, the serial dilutions of compound C-1 obtained in Example 108 were treated from 30 nM to 0.0096 nM, the serial dilutions of compound C-2 obtained in Example 109 were treated from 1000 nM to 0.32 nM, serial dilutions of the compound C-3 obtained in Example 110 and the compound C-7 obtained in Example 114 were treated from 25 nM to 0.0016 nM, and serial dilutions of the drug MMAF-OMe were treated from 10 nM to 0.0097 nM. The serial dilutions of compounds C-5 and C-6 obtained in Example 112 and Example 113 were treated from 100 nM to 0.0001 nM, and the serial dilutions of drug seco-DUBA were treated from 100 nM to 0.001 nM. […] The formazans formed by reduction of the MTT dye by mitochondrial oxidoreductases in the living cells were dissolved in DMSO, and measured using the absorbance at 550 nm.
(§3) KB, SKBR-3, BT-474, NCI-N87 cancer cells were seeded in 96-well plates at a density of 2,000 to 8,000 cells per well in 100 μL of medium, and cultured for 24 hours. […] Experiments were performed in a similar manner to Test Example 3 to quantify living cells 96 hours later, and results are shown in Tables 4 and 5 below.

NCI-N87 cells = assay: In vivo efficacy, tumor xenograft; set-up: species or system mice; settings: male BALB/c nu/nu, single i.v. injection day 0, 2 mg/kg
Description: In vivo efficacy of antibody-drug conjugates of the invention was measured by tumor xenograft studies in mice. Male BALB/c nu/nu were injected subcutaneously in the right flank with suspensions of 1×10^6 of NCI-N87 cells respectively in PBS. Mice were randomized into study groups when tumors reached approximately 100 mm^3. T-DM1 (2 mg/kg), D-1-AB, D-2-AB, D-8-AB, and D-18-AB conjugates (0.5 mg/kg or 2 mg/kg) were given i.v. (single injection on treatment day 0). All treatment groups consisted of 6 to 10 animals per group, and tumor size was monitored twice weekly using caliper measurement. The tumor mass was calculated as volume=(width×width×length)/2.

BT-474 cancer cells = assay: In vitro analysis of antibody-drug conjugate, BT-474; format: cell-based; settings: 96 hours
Description: as §2, §3

NCI-N87 cancer cells = assay: In vitro analysis of antibody-drug conjugate, NCI-N87; format: cell-based; settings: 96 hours
Description: as §2, §3

SKBR-3 cancer cells = assay: In vitro analysis of antibody-drug conjugate, SKBR-3; format: cell-based; settings: 96 hours
Description: as §2, §3

Escherichia coli β-galactosidase, sequence (P00722 2-1024): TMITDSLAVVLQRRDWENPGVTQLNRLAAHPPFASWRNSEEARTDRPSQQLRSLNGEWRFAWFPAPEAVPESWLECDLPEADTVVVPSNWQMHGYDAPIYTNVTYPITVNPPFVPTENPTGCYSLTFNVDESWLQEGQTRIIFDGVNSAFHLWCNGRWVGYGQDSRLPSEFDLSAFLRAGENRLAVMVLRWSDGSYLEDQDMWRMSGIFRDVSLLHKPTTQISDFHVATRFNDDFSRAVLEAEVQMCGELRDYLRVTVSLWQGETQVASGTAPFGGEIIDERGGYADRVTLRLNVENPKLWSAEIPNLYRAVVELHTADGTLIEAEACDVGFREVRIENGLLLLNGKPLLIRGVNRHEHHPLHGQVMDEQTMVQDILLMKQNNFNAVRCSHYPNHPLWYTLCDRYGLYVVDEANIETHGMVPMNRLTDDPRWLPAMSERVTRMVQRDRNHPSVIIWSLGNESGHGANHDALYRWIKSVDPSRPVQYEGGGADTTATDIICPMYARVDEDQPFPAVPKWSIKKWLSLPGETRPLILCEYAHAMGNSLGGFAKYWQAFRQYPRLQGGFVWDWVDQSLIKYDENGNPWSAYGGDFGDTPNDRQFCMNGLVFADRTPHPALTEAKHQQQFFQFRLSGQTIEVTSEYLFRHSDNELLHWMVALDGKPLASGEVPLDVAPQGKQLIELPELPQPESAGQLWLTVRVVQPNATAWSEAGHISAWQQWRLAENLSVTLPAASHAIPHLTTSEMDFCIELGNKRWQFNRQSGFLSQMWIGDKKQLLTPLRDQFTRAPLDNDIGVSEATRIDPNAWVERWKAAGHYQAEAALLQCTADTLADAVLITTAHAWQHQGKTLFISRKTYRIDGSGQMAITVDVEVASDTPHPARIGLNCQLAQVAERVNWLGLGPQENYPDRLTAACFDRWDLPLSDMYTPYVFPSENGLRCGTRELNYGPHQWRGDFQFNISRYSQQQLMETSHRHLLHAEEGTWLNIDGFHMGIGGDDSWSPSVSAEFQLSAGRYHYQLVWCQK
T1 sequence (P05804 whole entry): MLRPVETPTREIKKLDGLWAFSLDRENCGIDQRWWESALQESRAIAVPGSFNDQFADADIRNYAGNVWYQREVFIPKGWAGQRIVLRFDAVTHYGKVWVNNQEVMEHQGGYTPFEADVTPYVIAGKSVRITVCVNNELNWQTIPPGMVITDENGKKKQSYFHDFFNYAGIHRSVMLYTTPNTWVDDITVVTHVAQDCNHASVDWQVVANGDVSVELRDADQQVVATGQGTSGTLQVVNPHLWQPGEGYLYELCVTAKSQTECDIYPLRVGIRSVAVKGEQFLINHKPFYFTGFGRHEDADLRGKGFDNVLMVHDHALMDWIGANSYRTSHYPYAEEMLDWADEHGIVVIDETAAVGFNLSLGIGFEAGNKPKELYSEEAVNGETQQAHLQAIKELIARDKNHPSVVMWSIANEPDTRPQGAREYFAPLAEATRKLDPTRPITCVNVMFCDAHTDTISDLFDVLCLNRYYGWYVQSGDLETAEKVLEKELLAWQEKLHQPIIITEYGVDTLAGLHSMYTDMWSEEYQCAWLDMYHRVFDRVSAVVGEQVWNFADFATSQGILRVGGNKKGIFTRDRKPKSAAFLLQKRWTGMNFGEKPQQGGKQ

CC(C)(C)OC(=O)NC(Cc1ccc(OS(=O)(=O)Oc2ccccc2O[C@@H]2O[C@H](CO)[C@H](O)[C@H](O)[C@H]2O)cc1)C(=O)O (stereo partly drawn) [Compound A-1]
compound present (remaining) [1]: > 95%
compound detected and quantitated in plasma [2]: > 95%
compound detected and quantitated in plasma [3]: > 95%
compound detected and quantitated in plasma [4]: > 95%
compound detected and quantitated in plasma [5]: > 95%
half-life at 100 μM [6]: 0.43 ± 0.11 min

CC(C)(C)OC(=O)N[C@H](Cc1ccc(OS(=O)(=O)Oc2ccccc2O[C@@H]2O[C@H](COC3O[C@H](C(=O)O)[C@@H](O)[C@H](O)[C@H]3O)[C@H](O)[C@H](O)[C@H]2O)cc1)C(=O)O (stereo partly drawn) [Compound A-5]
half-life at 100 μM [6]: < 5 min
half-life at 100 μM ([7]; pH 7.4): < 5 min
half-life at 100 μM [8]: < 5 min

CCc1c2c(nc3ccc(OS(=O)(=O)Oc4cc(C(=O)NCCOCCOCCOCCN=[N+]=[N-])ccc4O[C@@H]4O[C@H](CO)[C@H](O)[C@H](O)[C@H]4O)cc13)-c1cc3c(c(=O)n1C2)COC(=O)[C@]3(O)CC [Compound B-2]
Q part release t1/2(min) (Human β-galactosidase; pH 5): 39.41 min
Q part release t1/2(min) (Human β-galactosidase; pH 7.4): 112.2 min
half-life at 100 μM (Human β-galactosidase; pH 5): 5.33 min
half-life at 100 μM ([7]; pH 5): 5.75 min
half-life at 100 μM ([7]; pH 7.4): 0.28 min

CC[C@H](C)[C@@H]([C@@H](CC(=O)N1CCC[C@H]1[C@H](OC)[C@@H](C)C(=O)N[C@@H](Cc1ccccc1)C(=O)OC)OC)N(C)C(=O)[C@@H](NC(=O)[C@@H](NC)C(C)C)C(C)C [MMAF-OMe] (H-[NMeV]V[Dil][Dolaproine]F-OMe)
IC50 (KB cancer cells [9]): 0.35 ± 0.07 nM
IC50 (KB cancer cells [10]; values marked * (asterisk not explained)): 0.16 nM
IC50 (KB cancer cells [10]; values without asterisk): 0.44 nM

T-DM1
activity compared with the conjugates of the invention (NCI-N87 cells): less active
IC50 (BT-474 cancer cells): 0.18 nM
IC50 (NCI-N87 cancer cells): 0.02 nM
IC50 (SKBR-3 cancer cells): 0.02 nM
